Results: PMC8151276, “An Integrated Approach toward NanoBRET Tracers for Analysis of GPCR Ligand Engagement” (Molecules, 2021)
Blank lines part the entries; values can stand above or below the compound they belong to.

How the values were obtained:
Assay type in all cases: binding
CCR4 = target: T1, CCR4 (Homo sapiens, UniProt P51679); experiment: NanoBRET screen HiBiT-CCR4 in HEK293
T1 construct: purchased Promega (in-house HiBiT-GPCR construct library, NanoBRET)
T1 sequence (P51679 1-360): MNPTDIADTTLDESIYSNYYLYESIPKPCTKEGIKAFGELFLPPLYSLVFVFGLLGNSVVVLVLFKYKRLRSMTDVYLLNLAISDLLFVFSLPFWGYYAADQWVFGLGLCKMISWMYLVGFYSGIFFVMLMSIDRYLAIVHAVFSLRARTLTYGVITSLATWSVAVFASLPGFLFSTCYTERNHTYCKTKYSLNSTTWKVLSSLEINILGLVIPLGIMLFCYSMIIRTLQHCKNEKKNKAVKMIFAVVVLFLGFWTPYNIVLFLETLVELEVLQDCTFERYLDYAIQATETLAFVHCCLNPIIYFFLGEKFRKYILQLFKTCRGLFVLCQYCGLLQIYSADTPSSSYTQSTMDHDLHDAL
Method: (§1) Each tracer candidate was screened across the entire library of HiBiT-GPCR constructs using NanoBRET as the detection modality. As depicted in Figure 4A, the specificity of interactions was evaluated through decrease in BRET due to competitive displacement of a bound tracer by excess parental compound. Each tracer was analyzed for binding to each HiBiT-GPCR fusion in the absence and in the presence of competing parental compound. Briefly, HEK293 cells were transfected with HiBiT-GPCR constructs diluted into promoterless DNA to reduce expression and maximize translocation to the cell surface. Each tracer candidate was then screened at concentrations of 1 μM and 0.1 μM across cells expressing these fusions. Cells were treated for 1.5 h with tracer either alone or in the presence of 20 μM competing parental compound (i.e., control). BRET was measured upon addition of purified LgBiT and subsequent complementation with HiBiT genetically fused to a GPCR. The specificity of interactions was assessed through a decrease in BRET signal due to competitive displacement of the bound tracer. To further gauge the robustness of these interactions, the fold response over the control (i.e., BRETtracer/BRETcontrol) was calculated. We chose a 1.5-fold response, which translates to ≥7-fold signal over noise as the minimal threshold required to score an interaction as positive. […]. Below we highlight the screening results obtained for our exemplary fluorescent tracers based on Clozapine, Amitriptyline and AZD1283.
(§2) HiBiT-GPCR DNA constructs were diluted in 10 mM Tris pH 8 to a final concentration of 0.01 μg/μL, arrayed in 96-well plates and stored at −20 °C. For transfection, HEK293 cells were suspended in Opti-MEM (without phenol red) supplemented with 2% fetal bovine serum (Seradigm) and 100 units/mL penicillin–streptomycin (Gibco) at a final concentration of 220,000 cells/mL and dispensed into white 96-well plates at 90 μL/well. Subsequent transfections and screens were carried using an Agilent Bravo Automated Liquid Handling Platform. First, the 96-well HiBiT DNA arrays were diluted 25-fold in Opti-MEM (without serum or phenol red) to a final concentration of 0.0004 μg/μL and 20 μL of the diluted DNAs were transferred into new 96-well plates. Next, promoterless carrier DNA (1 μg/μL) was diluted 25-fold (0.04 μg/μL) and then dispensed into the diluted arrays at 20 μL/well. Following brief mixing, Viafect transfection reagent (Promega) diluted 16-fold into Opti-MEM was dispensed into the plates at 40 μL/well. After mixing by pipetting, plates were incubated for 10 min on the pipetting station deck. The DNA-transfection reagent complexes were then added to plates containing cells. To facilitate the screen, 10 μL of DNA-transfection reagent complexes were added in duplicates to the top 4 and bottom 4 rows, resulting in two identical 48-well arrays per plate. Plates with transfected cells were incubated for 18–20 h at 37 °C/5% CO2. A screen of each tracer across the entire library using two different concentrations requires duplicate plates of transfected cells. Depending on the number of tracers being screened, transfections can be scaled up using the same ratios. The next day, for each tracer, four 20× screening solutions in tracer dilution buffer (Promega) were prepared: two duplicates at final concentration of 20 μM and two duplicates at a final concentration of 2 μM. A competing unmodified compound was added to one of each duplicate at a final concentration of 400 μM. The four resulting solutions were diluted 4-fold in Opti-MEM without serum or phenol red to generate 5× solutions (5 µM and 0.5 µM tracer +/− 100 μM competing compound). To screen the library, a BioTek MultiFlo FX liquid dispenser was used to dispense 22.5 µL of tracer solution to the top 4 rows and 22.5 µL tracer + competing compound solution to the 4 bottom rows. Plates were briefly mixed on an orbital shaker and incubated for 1.5 h at room temperature. […]

P2RY6 = target: T2, P2RY6 (Homo sapiens, UniProt Q15077); experiment: NanoBRET screen HiBiT-P2RY6 in HEK293
T2 construct: purchased Promega (in-house HiBiT-GPCR construct library, NanoBRET)
Method: as §1, §2

GRM3 = target: T3, GRM3 (Homo sapiens, UniProt Q14832); experiment: NanoBRET screen HiBiT-GRM3 in HEK293
T3 construct: purchased Promega (in-house HiBiT-GPCR construct library, NanoBRET)
Method: as §1, §2

OXTR = target: T4, OXTR (Homo sapiens, UniProt P30559); experiment: NanoBRET screen HiBiT-OXTR in HEK293
T4 construct: purchased Promega (in-house HiBiT-GPCR construct library, NanoBRET)
T4 sequence (P30559 1-389): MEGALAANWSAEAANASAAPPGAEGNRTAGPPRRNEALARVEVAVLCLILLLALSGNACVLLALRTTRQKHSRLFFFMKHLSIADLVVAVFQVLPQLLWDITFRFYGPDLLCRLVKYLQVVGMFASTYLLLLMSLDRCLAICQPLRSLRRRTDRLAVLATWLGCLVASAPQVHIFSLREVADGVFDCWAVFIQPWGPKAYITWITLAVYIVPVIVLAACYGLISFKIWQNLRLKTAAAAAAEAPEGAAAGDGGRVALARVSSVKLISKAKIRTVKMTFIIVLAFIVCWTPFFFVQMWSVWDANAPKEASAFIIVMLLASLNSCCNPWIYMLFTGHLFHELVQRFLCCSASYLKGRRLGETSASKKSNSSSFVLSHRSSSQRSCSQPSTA
Method: as §1, §2

T3 sequence (Q14832 23-879): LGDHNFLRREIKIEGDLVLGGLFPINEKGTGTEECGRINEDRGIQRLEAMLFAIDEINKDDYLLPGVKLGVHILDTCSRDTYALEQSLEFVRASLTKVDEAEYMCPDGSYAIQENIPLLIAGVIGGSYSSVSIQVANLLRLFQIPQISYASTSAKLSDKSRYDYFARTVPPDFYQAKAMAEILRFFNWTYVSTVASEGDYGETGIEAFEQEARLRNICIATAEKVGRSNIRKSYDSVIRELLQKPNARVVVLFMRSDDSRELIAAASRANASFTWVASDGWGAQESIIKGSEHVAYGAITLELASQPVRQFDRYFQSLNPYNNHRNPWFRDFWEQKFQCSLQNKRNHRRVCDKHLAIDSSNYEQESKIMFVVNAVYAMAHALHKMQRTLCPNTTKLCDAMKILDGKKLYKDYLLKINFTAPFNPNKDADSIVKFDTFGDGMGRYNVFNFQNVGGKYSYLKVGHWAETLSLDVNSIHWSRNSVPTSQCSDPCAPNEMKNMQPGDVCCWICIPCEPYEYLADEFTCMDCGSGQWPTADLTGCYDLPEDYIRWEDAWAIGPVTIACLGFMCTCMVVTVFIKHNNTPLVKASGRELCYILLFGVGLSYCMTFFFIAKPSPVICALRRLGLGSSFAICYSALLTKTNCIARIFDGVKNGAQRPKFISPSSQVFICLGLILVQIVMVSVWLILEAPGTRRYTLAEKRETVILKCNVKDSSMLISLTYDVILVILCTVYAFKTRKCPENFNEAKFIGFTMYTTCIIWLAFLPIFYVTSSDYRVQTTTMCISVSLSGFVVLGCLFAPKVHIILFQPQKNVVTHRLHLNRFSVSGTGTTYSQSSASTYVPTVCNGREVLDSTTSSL
T2 sequence (Q15077 whole entry): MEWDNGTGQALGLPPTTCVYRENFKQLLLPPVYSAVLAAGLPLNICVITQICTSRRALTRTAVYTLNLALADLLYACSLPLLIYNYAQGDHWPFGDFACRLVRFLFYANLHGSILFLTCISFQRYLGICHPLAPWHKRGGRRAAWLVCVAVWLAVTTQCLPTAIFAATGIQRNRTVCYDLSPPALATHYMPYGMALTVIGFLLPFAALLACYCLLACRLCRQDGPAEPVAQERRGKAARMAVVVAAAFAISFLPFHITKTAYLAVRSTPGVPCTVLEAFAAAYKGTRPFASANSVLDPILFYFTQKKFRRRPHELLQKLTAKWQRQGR

- NanoBRET Fold Response (CCR4; 0.1μM tracer): 1.23
- NanoBRET Fold Response (CCR4; 1μM tracer): 0.96
- NanoBRET Fold Response (P2RY6; 0.1μM tracer): 1.40
- NanoBRET Fold Response (P2RY6; 1μM tracer): 1.09
- NanoBRET Fold Response (GRM3; 0.1μM tracer): 1.03
- NanoBRET Fold Response (GRM3; 1μM tracer): 0.85
- NanoBRET Fold Response (OXTR; 0.1μM tracer): 0.99
- NanoBRET Fold Response (OXTR; 1μM tracer): 0.87
Structure (SMILES): COc1ccc2[nH]c(-c3ccc(CNC(=O)CCOCCOCCOCCOCCNC(=O)CCc4ccc5n4[B-](F)(F)[N+]4=C(c6ccc[nH]6)C=CC4=C5)cc3)c(CCNC(C)=O)c2n1 [AzomelatoninICO9-2-NB590]

- NanoBRET Fold Response (CCR4; CCR4, 0.1μM tracer): 1.05
- NanoBRET Fold Response (CCR4; CCR4, 1μM tracer): 0.85
- NanoBRET Fold Response (P2RY6; P2RY6, 0.1μM tracer): 1.02
- NanoBRET Fold Response (P2RY6; P2RY6, 1μM tracer): 0.92
- NanoBRET Fold Response (GRM3; GRM3, 0.1μM tracer): 0.97
- NanoBRET Fold Response (GRM3; GRM3, 1μM tracer): 0.96
- NanoBRET Fold Response (OXTR; OXTR, 0.1μM tracer): 1.03
- NanoBRET Fold Response (OXTR; OXTR, 1μM tracer): 1.01
Structure (SMILES): O=C(CCOCCOCCOCCOCCNC(=O)CCc1ccc2n1[B-](F)(F)[N+]1=C(c3ccc[nH]3)C=CC1=C2)NCCCN1CCN(C2=Nc3cc(Cl)ccc3Nc3ccccc32)CC1 [Clozapine-a-2-NB590]

Structure (SMILES): CCCn1c(=O)c2[nH]c(-c3ccc(OCC(=O)NCCNC(=O)CCOCCNC(=O)c4ccc(CNC(=O)CCc5ccc6n5[B-](F)(F)[N+]5=C(c7ccc[nH]7)C=CC5=C6)cc4)cc3)nc2n(CCC)c1=O [XAC-3-NB590]
- NanoBRET Fold Response (CCR4; CCR4, tracer 0.1μM): 1.36
- NanoBRET Fold Response (CCR4; CCR4, tracer 1μM): 1.29
- NanoBRET Fold Response (P2RY6; P2RY6, tracer 0.1μM): 1.06
- NanoBRET Fold Response (P2RY6; P2RY6, tracer 1μM): 1.12
- NanoBRET Fold Response (GRM3; GRM3, tracer 0.1μM): 1.02
- NanoBRET Fold Response (GRM3; GRM3, tracer 1μM): 1.10
- NanoBRET Fold Response (OXTR; OXTR, tracer 0.1μM): 1.04
- NanoBRET Fold Response (OXTR; OXTR, tracer 1μM): 0.98

Structure (SMILES): O=C(CCc1ccc2n1[B-](F)(F)[N+]1=C(c3ccc[nH]3)C=CC1=C2)NCc1ccc(C(=O)NCCOCCOCCNCC(O)COc2cccc3ccccc23)cc1 (centres unmarked) [Propranolol-3-NB590]
- NanoBRET Fold Response (CCR4; CCR4, 0.1μM): 1.11
- NanoBRET Fold Response (CCR4; CCR4, 1μM): 1.03
- NanoBRET Fold Response (P2RY6; P2RY6, 0.1μM): 1.07
- NanoBRET Fold Response (P2RY6; P2RY6, 1μM): 0.96
- NanoBRET Fold Response (GRM3; GRM3, 0.1μM): 1.02
- NanoBRET Fold Response (GRM3; GRM3, 1μM): 0.95
- NanoBRET Fold Response (OXTR; OXTR, 0.1μM): 1.04
- NanoBRET Fold Response (OXTR; OXTR, 1μM): 0.98

Structure (SMILES): O=C(CCc1ccc2n1[B-](F)(F)[N+]1=C(c3ccc[nH]3)C=CC1=C2)NCc1ccc(C(=O)NCCOCCC(=O)N[C@@H]2CC[C@@]3(O)[C@H]4Cc5ccc(O)c6c5[C@@]3(CCN4CC3CC3)[C@H]2O6)cc1 [Naltrexone-3-NB590]
- NanoBRET Fold Response (CCR4; CCR4, tracer 0.1μM): 0.32
- NanoBRET Fold Response (CCR4; CCR4, tracer 1μM): 0.97
- NanoBRET Fold Response (P2RY6; P2RY6, tracer 0.1μM): 0.84
- NanoBRET Fold Response (P2RY6; P2RY6, tracer 1μM): 0.81
- NanoBRET Fold Response (GRM3; GRM3, tracer 0.1μM): 1.15
- NanoBRET Fold Response (GRM3; GRM3, tracer 1μM): 0.81
- NanoBRET Fold Response (OXTR; OXTR, tracer 0.1μM): 0.99
- NanoBRET Fold Response (OXTR; OXTR, tracer 1μM): 0.91

- NanoBRET Fold Response (CCR4; CCR4, tracer 0.1μM): 1.09
- NanoBRET Fold Response (CCR4; CCR4, tracer 1μM): 0.96
- NanoBRET Fold Response (P2RY6; P2RY6, tracer 0.1μM): 1.12
- NanoBRET Fold Response (P2RY6; P2RY6, tracer 1μM): 0.86
- NanoBRET Fold Response (GRM3; GRM3, tracer 0.1μM): 1.01
- NanoBRET Fold Response (GRM3; GRM3, tracer 1μM): 1.03
- NanoBRET Fold Response (OXTR; OXTR, tracer 0.1μM): 1.06
- NanoBRET Fold Response (OXTR; OXTR, tracer 1μM): 1.04
Structure (SMILES): N#CN=C(NCCCOc1cccc(CN2CCCCC2)c1)NCCNC(=O)CCOCCOCCOCCOCCNC(=O)CCc1ccc2n1[B-](F)(F)[N+]1=C(c3ccc[nH]3)C=CC1=C2 [Aminopotentidine-2-NB590]

- NanoBRET Fold Response (CCR4; 0.1μM tracer): 0.91
- NanoBRET Fold Response (CCR4; 1μM tracer): 0.81
- NanoBRET Fold Response (P2RY6; 0.1μM tracer): 1.01
- NanoBRET Fold Response (P2RY6; 1μM tracer): 1.01
- NanoBRET Fold Response (GRM3; 0.1μM tracer): 0.95
- NanoBRET Fold Response (GRM3; 1μM tracer): 1.02
- NanoBRET Fold Response (OXTR; 0.1μM tracer): 1.11
- NanoBRET Fold Response (OXTR; 1μM tracer): 0.94
Structure (SMILES): COc1ccc2c(n1)c(CCNC(C)=O)cn2CCNC(=O)CCc1ccc2n1[B-](F)(F)[N+]1=C(c3ccc[nH]3)C=CC1=C2 [Azamelatonin-1-NB590]

Structure (SMILES): CC(C)N(CC[C@H](c1ccccc1)c1cc(CCNC(=O)c2ccc(CNC(=O)CCc3ccc4n3[B-](F)(F)[N+]3=C(c5ccc[nH]5)C=CC3=C4)cc2)ccc1O)C(C)C [Tolterodine-BZ-NB590]
- NanoBRET Fold Response (CCR4; CCR4, tracer 0.1μM): 0.95
- NanoBRET Fold Response (CCR4; CCR4, tracer 1μM): 0.86
- NanoBRET Fold Response (P2RY6; P2RY6, tracer 0.1μM): 1.03
- NanoBRET Fold Response (P2RY6; P2RY6, tracer 1μM): 1.08
- NanoBRET Fold Response (GRM3; GRM3, tracer 0.1μM): 0.99
- NanoBRET Fold Response (GRM3; GRM3, tracer 1μM): 1.06
- NanoBRET Fold Response (OXTR; OXTR, tracer 0.1μM): 1.02
- NanoBRET Fold Response (OXTR; OXTR, tracer 1μM): 1.01

Structure (SMILES): CN1CCN(C2=Nc3cc(Cl)ccc3Nc3ccc(CNC(=O)CCOCCOCCOCCOCCNC(=O)CCc4ccc5n4[B-](F)(F)[N+]4=C(c6ccc[nH]6)C=CC4=C5)cc32)CC1 [Clozapine-b-2-NB590]
- NanoBRET Fold Response (CCR4; CCR4, 0.1μM tracer): 1.04
- NanoBRET Fold Response (CCR4; CCR4, 1μM tracer): 0.96
- NanoBRET Fold Response (P2RY6; P2RY6, 0.1μM tracer): 1.04
- NanoBRET Fold Response (P2RY6; P2RY6, 1μM tracer): 0.98
- NanoBRET Fold Response (GRM3; GRM3, 0.1μM tracer): 0.99
- NanoBRET Fold Response (OXTR; OXTR, 0.1μM tracer): 1.05
- NanoBRET Fold Response (OXTR; OXTR, 1μM tracer): 1.03
